IC50 data for 23 compounds are collected here from patent US20150225369A1, “DDR2 INHIBITORS FOR THE TREATMENT OF OSTEOARTHRITIS” (Merck Patent GmbH, priority 2012, published 2015).

The target in this assay is T1, HEK293 transfected with human DDR2 (Homo sapiens, UniProt Q16832).
T1 construct: expressed in transfected cells; host or cells: HEK293 (PLT460F_(DDR2)-P7-1)
T1 sequence (Q16832 22-855): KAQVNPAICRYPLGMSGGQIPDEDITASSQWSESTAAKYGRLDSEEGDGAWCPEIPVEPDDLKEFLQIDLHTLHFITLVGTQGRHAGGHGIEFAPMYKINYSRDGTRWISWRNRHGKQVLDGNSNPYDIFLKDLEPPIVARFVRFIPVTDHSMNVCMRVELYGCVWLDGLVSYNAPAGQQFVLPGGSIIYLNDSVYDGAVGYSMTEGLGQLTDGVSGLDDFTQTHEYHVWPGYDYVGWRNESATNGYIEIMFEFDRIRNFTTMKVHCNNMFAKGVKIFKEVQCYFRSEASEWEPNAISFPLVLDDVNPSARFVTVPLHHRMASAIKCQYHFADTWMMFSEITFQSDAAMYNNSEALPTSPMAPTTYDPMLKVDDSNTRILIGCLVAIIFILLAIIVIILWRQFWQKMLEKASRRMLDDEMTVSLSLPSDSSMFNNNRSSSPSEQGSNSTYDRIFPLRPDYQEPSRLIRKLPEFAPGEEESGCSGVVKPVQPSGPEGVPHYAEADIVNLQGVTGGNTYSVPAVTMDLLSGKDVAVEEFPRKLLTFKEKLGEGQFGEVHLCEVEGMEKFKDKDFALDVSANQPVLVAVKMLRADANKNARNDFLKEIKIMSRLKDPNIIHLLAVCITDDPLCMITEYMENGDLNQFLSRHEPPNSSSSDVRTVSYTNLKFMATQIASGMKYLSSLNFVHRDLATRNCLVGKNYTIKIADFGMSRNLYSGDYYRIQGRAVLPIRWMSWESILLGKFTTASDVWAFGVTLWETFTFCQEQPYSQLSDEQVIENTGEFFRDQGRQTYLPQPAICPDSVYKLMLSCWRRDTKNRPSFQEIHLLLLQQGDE
Kind of assay: Phospho-DDR2 cellular assay (collagen II induced DDR2 phosphorylation, ELISA). The following applies: cellular phospho-DDR2; read-out: IC50 [p-DDR2]. It counts as cell-based. The procedure:
Assays were performed in a 384 well plate format, using cell line HEK293 transfected with human DDR2 (PLT460F_(DDR2)-P7-1)
Cells were seeded at a density of 10'000 cells/well in 384well poly-D-lysine coated Black/clear plate (Cellcoat Greiner) and incubated in DMEM medium in the presence of 10% fetal bovine serum at 37° C., 5% CO2 for 48 h. Medium was replaced by serum-free medium and cells were incubated at 37° C., 5% CO2 for 8 h. Compound to be tested in 5% DMSO or 5% DMSO and 50 μg/ml of chicken collagen II were added and cells were incubated at 37° C., 5% CO2 for 16 h
Cells were rinsed with ice-cold PBS, lysed with lysis buffer (M-PER Thermo #78501) for 30 min at room temperature and centrifuged for 1 min at 1000 RPM. In parallel, White High binding 384 well plates (Corning) were coated with mouse anti-human DDR2 capture antibody (R&D Systems kit DuoSet IC Human phospho-DDR2 ELISA), overnight at RT.
An aliquot of cell lysate was transferred to the coated plates and incubated for 2 h at RT. Plates were washed and mouse anti-phospho-tyrosine detection antibody (R&D Systems kit DuoSet IC Human phospho-DDR2 ELISA) conjugated to horse radish peroxidase (HRP) was added for 2 h at RT. Plates were washed and chemiluminescent substrate for HRP (Thermo) was added for 15 min at RT. Luminescence was measured on a luminometer.
(In general: An ELISA detects its analyte on a solid surface through an enzyme-linked reagent.)

As for `CNC(=O)c1cc(Oc2ccc(CNC(=O)Nc3ccc(Cl)c(C)c3)cc2)ccn1` [compound 74, 4-{4-[3-(4-Chloro-3-methyl-phenyl)-ureidomethyl]-phenoxy}-pyridine-2-carboxylic acid methylamide], the IC50 came to 175 nM. With `CNC(=O)c1cc(Oc2ccc(CNC(=O)Nc3ccc4nsnc4c3)cc2)ccn1` [compound 76, 4-{4-[(3-Benzo[1,2,5]thiadiazol-5-yl-ureido)-methyl]-phenoxy}-pyridine-2-carboxylic acid methylamide] the figure was 670 nM. Next, `CNC(=O)c1cc(Oc2ccc(CNC(=O)Nc3cc(OC)c(OC)c(OC)c3)cc2)ccn1` [compound 80, 4-{4-[3-(3,4,5-Trimethoxy-phenyl)-ureidomethyl]-phenoxy}-pyridine-2-carboxylic acid methylamide]: 750 nM; `O=C(NCc1ccc(Oc2ccnc(C(=O)O)c2)cc1)Nc1ccc(Cl)c(C(F)(F)F)c1` [compound 99, 4-{4-[3-(4-Chloro-3-trifluoromethyl-phenyl)-ureidomethyl]-phenoxy}-pyridine-2-carboxylic acid]: 2850 nM. As for `CNC(=O)c1cc(Oc2ccc(CNC(=O)Nc3cc(C(F)(F)F)ccc3N3CCNCC3)cc2)ccn1` [compound 122, 4-{4-[3-(2-Piperazin-1-yl-5-trifluoromethyl-phenyl)-ureidomethyl]-phenoxy}-pyridine-2-carboxylic acid methylamide], the IC50 turned out to be 135 nM.

Turning to `CNC(=O)c1cc(Oc2ccc(CNC(=O)Nc3cccc(S(C)(=O)=O)c3)cc2)ccn1` [compound 135, 4-{4-[3-(3-Methanesulfonyl-phenyl)-ureidomethyl]-phenoxy}-pyridine-2-carboxylic acid methylamide], the 50% inhibitory concentration (IC50) is 390 nM. Next, `NCCNC(=O)c1cc(Oc2ccc(CNC(=O)Nc3ccc(Cl)c(C(F)(F)F)c3)cc2)ccn1` [compound 148, 4-{4-[3-(4-Chloro-3-trifluoromethyl-phenyl)-ureidomethyl]-phenoxy}-pyridine-2-carboxylic acid (2-amino-ethyl)-amide]: 785 nM; `CNCCNC(=O)c1cc(Oc2ccc(CNC(=O)Nc3ccc(Cl)c(C(F)(F)F)c3)cc2)ccn1` [compound 149, 4-{4-[3-(4-Chloro-3-trifluoromethyl-phenyl)-ureidomethyl]-phenoxy}-pyridine-2-carboxylic acid (2-methylamino-ethyl)-amide]: 925 nM. With `CNC(=O)c1cc(Oc2ccc(CNC(=O)Nc3cccc(S(C)(=O)=O)c3)cc2C)ccn1` [compound 154, 4-{4-[3-(3-Methanesulfonyl-phenyl)-ureidomethyl]-2-methyl-phenoxy}-pyridine-2-carboxylic acid methylamide] the figure was 1250 nM. Next, `CNC(=O)c1cc(Oc2ccc(CNC(=O)Nc3cccc(S(N)(=O)=O)c3)cc2)ccn1` [compound 157, 4-{4-[3-(3-Sulfamoyl-phenyl)-ureidomethyl]-phenoxy}-pyridine-2-carboxylic acid methylamide]: 500 nM; `CNC(=O)c1cc(Oc2ccc(CNC(=O)Nc3cccc(S(=O)(=O)NC(C)C)c3)cc2)ccn1` [compound 158, 4-{4-[3-(3-Isopropylsulfamoyl-phenyl)-ureidomethyl]-phenoxy}-pyridine-2-carboxylic acid methylamide]: 100000 nM. Take `CNC(=O)c1cc(Oc2ccc(CNC(=O)Nc3cc(C)c(Cl)cc3N(C)CCN(C)C)cc2)ccn1` [compound 162, 4-[4-(3-{4-Chloro-2-[(2-dimethylamino-ethyl)-methyl-amino]-5-methyl-phenyl}-ureidomethyl)-phenoxy]-pyridine-2-carboxylic acid methylamide]: the IC50 amounted to 1600 nM.

For `CNC(=O)c1cc(Oc2ccc(CNC(=O)Nc3cc(C)c(Cl)cc3N(C)CCN(C)C)cc2C)ccn1` [compound 164, 4-[4-(3-{4-Chloro-2-[(2-dimethylamino-ethyl)-methyl-amino]-5-methyl-phenyl}-ureidomethyl)-2-methyl-phenoxy]-pyridine-2-carboxylic acid methylamide], the IC50 stood at 300 nM. On to `CNC(=O)c1cc(Oc2ccc(CNC(=O)Nc3cccc(NS(C)(=O)=O)c3)cc2C)ccn1` [compound 167, 4-{4-[3-(3-Methanesulfonylamino-phenyl)-ureidomethyl]-2-methyl-phenoxy}-pyridine-2-carboxylic acid methylamide], for which the IC50 was determined as 1500 nM. Take `CNC(=O)c1cc(Oc2ccc(CNC(=O)Nc3cc(C(F)(F)F)ccc3CCN)cc2)ccn1` [compound 175, 4-(4-{3-[2-(2-Amino-ethyl)-5-trifluoromethyl-phenyl]-ureidomethyl}-phenoxy)-pyridine-2-carboxylic acid methylamide]: the IC50 came out at 1300 nM.

Regarding `CNC(=O)c1cc(Oc2ccc(CNC(=O)Nc3cc(C(F)(F)F)ccc3N3CCNCC3)cc2C)ccn1` [compound 184, 4-{2-Methyl-4-[3-(2-piperazin-1-yl-5-trifluoromethyl-phenyl)-ureidomethyl]-phenoxy}-pyridine-2-carboxylic acid methylamide], the IC50 came to 76 nM. Next, `CNC(=O)c1cc(Oc2ccc(CNC(=O)Nc3cc(C)c(Cl)cc3NC(C)=O)cc2C)ccn1` [compound 186, 4-{4-[3-(2-Acetylamino-4-chloro-5-methyl-phenyl)-ureidomethyl]-2-methyl-phenoxy}-pyridine-2-carboxylic acid methylamide]: 330 nM. Take `CNC(=O)c1cc(Oc2ccc(CNC(=O)Nc3cc(C(F)(F)F)ccc3CN3CCNCC3)cc2)ccn1` [compound 192, 4-{4-[3-(2-Piperazin-1-ylmethyl-5-trifluoromethyl-phenyl)-ureidomethyl]-phenoxy}-pyridine-2-carboxylic acid methylamide]: the IC50 is 1150 nM.

`CNC(=O)c1cc(Oc2ccc(CNC(=O)Nc3ccc(C)cc3CO)cc2C)ccn1` [compound 196, 4-{4-[3-(2-Hydroxymethyl-4-methyl-phenyl)-ureidomethyl]-2-methyl-phenoxy}-pyridine-2-carboxylic acid methylamide]: the IC50 was 17600 nM. Consider `CNC(=O)c1cc(Oc2ccc(CNC(=O)Nc3ccccc3CO)cc2C)ccn1` [compound 198, 4-{4-[3-(2-Hydroxymethyl-phenyl)-ureidomethyl]-2-methyl-phenoxy}-pyridine-2-carboxylic acid methylamide], for which the IC50 came to 7500 nM. `CNC(=O)Cc1ccc(C(F)(F)F)cc1NC(=O)NCc1ccc(Oc2ccnc(C(=O)NC)c2)c(C)c1` [compound 200, 4-{2-Methyl-4-[3-(2-methylcarbamoylmethyl-5-trifluoromethyl-phenyl)-ureidomethyl]-phenoxy}-pyridine-2-carboxylic acid methylamide]: the IC50 was found to be 455 nM. As to `CNC(=O)c1cc(Oc2ccc(CNC(=O)Nc3cc(C(F)(F)F)ccc3-n3cncn3)cc2)ccn1` [compound 201, 4-{4-[3-(2-[1,2,4]Triazol-1-yl-5-trifluoromethyl-phenyl)-ureidomethyl]-phenoxy}-pyridine-2-carboxylic acid methylamide], the IC50 is 41 nM. With `CNC(=O)c1cc(Oc2ccc(CNC(=O)Nc3cc(C(F)(F)F)ccc3-n3cncn3)cc2C)ccn1` [compound 202, 4-{2-Methyl-4-[3-(2-[1,2,4]triazol-1-yl-5-trifluoromethyl-phenyl)-ureidomethyl]-phenoxy}-pyridine-2-carboxylic acid methylamide] the figure was 14 nM.

For orientation: IC50 means the concentration that gives 50% inhibition.
